Laboratory results from BindingDB's records for doi:10.1002/cbic.201200524 (Mcgill University, 2012).

The compounds below were run against Cytochrome P450 2E1 (Homo sapiens, UniProt P05181) (assay: Spectral Binding Assay).
Sequence of Cytochrome P450 2E1 (P05181 whole entry): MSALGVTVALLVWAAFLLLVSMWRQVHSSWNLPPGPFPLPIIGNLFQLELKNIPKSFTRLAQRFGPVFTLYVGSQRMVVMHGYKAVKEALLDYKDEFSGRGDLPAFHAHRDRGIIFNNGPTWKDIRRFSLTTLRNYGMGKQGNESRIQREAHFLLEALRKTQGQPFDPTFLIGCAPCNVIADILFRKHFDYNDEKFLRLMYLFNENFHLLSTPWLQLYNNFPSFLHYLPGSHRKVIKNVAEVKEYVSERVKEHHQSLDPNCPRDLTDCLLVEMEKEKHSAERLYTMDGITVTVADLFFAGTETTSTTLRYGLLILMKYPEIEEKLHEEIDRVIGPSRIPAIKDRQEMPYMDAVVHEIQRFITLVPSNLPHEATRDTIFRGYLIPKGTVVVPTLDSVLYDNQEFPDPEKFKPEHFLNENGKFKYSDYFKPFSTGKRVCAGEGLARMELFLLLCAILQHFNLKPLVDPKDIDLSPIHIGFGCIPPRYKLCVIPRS
Source text: All UV/Vis spectra of the enzyme-ligand complexes were obtained on a Cary 5000 UV/Vis spectrophotometer.
CCCCCCOC(=O)c1cccnc1 [Auxiliary substrate, 1a] gave a Kd of 1.4 µM.
Work on CCCCCCCCOC(=O)c1cccnc1 [Auxiliary substrate, 14a] yielded a Kd of 2.1 µM.
O=C(OCC1CCCC1)c1cccnc1 [Auxiliary substrate, 20a] gave a Kd of 1.6 µM.
For CCC(C)CCOC(=O)c1cccnc1 (stereo not drawn) [Auxiliary substrate, 10a], the Kd was 2.6 µM.
In the case of CC/C=C/CCOC(=O)c1cccnc1 [Auxiliary substrate, 16a], the Kd is reported as 1.3 µM.
CCCCCOC(=O)c1cccnc1 [Auxiliary substrate, 12a] showed a Kd of 5.9 µM.
Compound C=CCCOC(=O)c1cccnc1 [Auxiliary substrate, 18a] has a Kd of 12 µM.
Compound CC(C)CCCCOC(=O)c1cccnc1 [Auxiliary substrate, 11a] has a Kd of 1.8 µM.
